Source: patent publication US11597725B2, “URAT1 inhibitor for promoting uric acid excretion” (JIANGSU ATOM BIOSCIENCE AND PHARMACEUTICAL CO., LTD., priority 2017, dated 2023)

Molecular target: T1, hURAT1 (Homo sapiens, UniProt Q96S37)
T1 sequence (Q96S37 1-553): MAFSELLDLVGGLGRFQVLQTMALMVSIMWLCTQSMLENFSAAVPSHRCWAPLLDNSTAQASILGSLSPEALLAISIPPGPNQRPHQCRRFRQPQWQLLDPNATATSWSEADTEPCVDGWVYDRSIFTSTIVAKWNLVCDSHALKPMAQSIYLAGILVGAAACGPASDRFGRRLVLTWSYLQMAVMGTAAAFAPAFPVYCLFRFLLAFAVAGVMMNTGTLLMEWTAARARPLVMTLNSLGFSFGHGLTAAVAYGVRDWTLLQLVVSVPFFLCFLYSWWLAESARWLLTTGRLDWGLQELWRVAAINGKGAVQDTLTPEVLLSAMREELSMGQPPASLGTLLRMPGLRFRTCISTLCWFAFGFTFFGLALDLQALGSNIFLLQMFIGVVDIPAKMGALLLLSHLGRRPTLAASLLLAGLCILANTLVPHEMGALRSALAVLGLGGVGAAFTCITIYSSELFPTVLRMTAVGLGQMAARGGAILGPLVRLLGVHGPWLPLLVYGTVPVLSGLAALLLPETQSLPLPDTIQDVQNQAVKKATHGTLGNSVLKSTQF
Assay: Inhibition assay of uric acid transport in HEK293-hURAT1 transfection cell line (14C-uric acid uptake)
Format: cell-based
Settings: for inhibition at 0.5 µM: compound concentration 500 nM, HEK293-hURAT1 stable cells, 14C-uric acid, mean of three tests ±SD, read-out: Inhibition rate of uric acid transport, ±SD (%); for inhibitory effects of uric acid transport in HEK293-hURAT1 transfection cell line, in words: in comparison with control drug Zurampic at 500 nM
Procedure: Inhibition Assay of Uric Acid Transport for Compounds in HEK293-hURAT1 Transfection Cell Line
1. Construction of a HEK293 stable cell line with high expression of hURAT1:
The plasmid pCMV6-hURAT1 was transfected into HEK293 cells, then the stable strain was obtained by the G418 (final concentration of 500 μg/mL) resistance screening, which is the high expression of hURAT1 transporter membrane protein. It can be used for in vitro inhibition assay of uric acid transporter hURAT1 (Weaver Y M, Ehresman D J, Butenhoff J L, et al. Roles of rat renal organic anion transporters in transporting perfluorinated carboxylates with different chain lengths. Toxicological Sciences, 2009, 113(2):305-314).
2. Coating 24-well plate: to a coated 24-well plate was added 200 μl of 0.1 mg/mL poly-lysine per well and the plate was left overnight. Poly-lysine was removed from wells. The wells were cleaned thoroughly with steriled water and dried for use.
3. To the above coated 24-well plate was added HEK293-hURAT1 stable cells (2×10^5 cells per well). The cells were cultured at 37° C. under 5% CO2 for 3 days.
4. Preparation of HBSS buffer: the following reagents were weighed according to the final concentration of 125 mM sodium gluconate, 4.8 mM potassium gluconate, 1.3 mM calcium gluconate, 1.2 mM KH2PO4, 1.2 mM MgSO4, 5.6 mM glucose and 25 mM HEPES. Deionized water was added to reach the corresponding volume, and the solution was fully mixed to give HBSS (pH value: 7.4). The buffer was stored at −20° C. in a refrigerator.
5. At the day of experiment, the HBSS buffer was taken out of the refrigerator and warmed to 37° C. in a water bath. Taken out the 24-well plate with HEK293-hURAT1 stable cells, removed the culture medium and washed cells with HBSS, then add 160 μL of HBSS and 20 μL test compound per well. The final concentration of tested compound per well is 500 nM. The blank control well contains only 180 μL of HBSS without tested compound. The plate was placed at room temperature for 10 minutes.
6. To each well was added 20 μL of 50 μM ^14C-uric acid. The 24-well plate was placed at room temperature for 20 minutes.
7. The solution in each well was removed and the cells in each well were washed with the pre-cooled HBSS buffer. To each well was added 0.2 M NaOH to dissolve the cells. The solution containing cell fragments was collected and the appropriate amount of scintillation liquid was added. The radioisotope intensity of the ^14C-Uric acid (CPM value) was then detected by using PerkinElmer MicroBeta Trilux 1450 liquid scintillation analyzer.
8. In HEK293 transfected cell lines, the formula for calculating the inhabitation rate of uric acid transport for compounds was shown as below (Table 1), the CPM value of the tested compounds was represented by CPM(tested compound) and the CPM value of the blank control was represented by CPM(blank control). All tests were repeated three times, and the results were averaged and the standard deviation (SD) was calculated: Inhibition rate(%)(500 nM compound concentration)=(CPM(blank control)−CPM(test compound))/CPM(blank control)×100%

SMILES | inhibition at 0.5 µM [%] | inhibitory effects of uric acid transport in HEK293-hURAT1 transfection cell line, in words
CCn1nc2c(c1C(=O)c1cc(Br)c(O)c(Br)c1)CCCC2 [Compound 41, (3,5-dibromo-4-hydroxyphenyl)(2-ethyl-4,5,6,7-tetrahydro-2H-indazol-3-yl)methanone] | 46.2 ± 6.18 | very good inhibitory effects
CCc1nc2n(c1C(O)c1cc(Br)c(O)c(Br)c1)CCCC2 (stereo not shown) [Compound 42, 2,6-dibromo-4-[(2-ethyl-5,6,7,8-tetrahydroimidazo[1,2-a]-pyridin-3-yl)hydroxymethyl]phenol] | 47.6 ± 3.08 | very good inhibitory effects
CCn1nc2c(c1C(=O)c1cc(Br)c(O)c(Br)c1)COCC2 [Compound 58] | 38.6 ± 6.3 | –
CCc1nc2n(c1C(O)c1cc(Br)c(O)c(C#N)c1)CCCC2 (stereo not shown) [Compound 63, 3-bromo-5-((2-ethyl-5,6,7,8-tetrahydroimidazo[1,2-a]pyridin-3-yl)hydroxymethyl)-2-hydroxyl benzonitrile] | 42.3 ± 2.6 | –
O=C(O)CSc1nnc(Br)n1-c1ccc(C2CC2)c2ccccc12 [Zurampic, Lesinurad, reference compound] | 27.6 ± 2.89 | –

Next, values leading:

inhibition at 0.5 µM [%] | inhibitory effects of uric acid transport in HEK293-hURAT1 transfection cell line, in words | SMILES
53.4 ± 4.54 | very good inhibitory effects | CCc1nc2n(c1C(=O)c1cc(Br)c(O)c(Br)c1)CCCC2 [Compound 5, (3,5-dibromo-4-hydroxyphenyl)(2-ethyl-5,6,7,8-tetrahydroimidazo[1,2-a]pyridine-3-yl)methanone]
47.5 ± 3.12 | very good inhibitory effects | [2H]C1c2nc(CC)c(C(=O)c3cc(Br)c(O)c(Br)c3)n2C([2H])C([2H])([2H])C1[2H] (stereo not shown) [Compound 10, (3,5-dibromo-4-hydroxyphenyl)(5,6,6,7,8-pentadeuterio-2-ethyl-5,6,7,8-tetrahydroimidazo[1,2-a]pyridin-3-yl)methanone]
47.46 ± 0.14 | very good inhibitory effects | CCc1nc2n(c1C(=O)c1cc(Br)c(O)c(C#N)c1)CCCC2 [Compound 17, 3-bromo-5-(2-ethyl-5,6,7,8-tetrahydroimidazo[1,2-a]pyridine-3-carbonyl)-2-hydroxybenzonitrile]
47.5 ± 1.65 | very good inhibitory effects | CCc1nc2n(c1C(=O)c1cc(Br)c(O)c(Br)c1)CCC(O)C2 (stereo not shown) [Compound 23, (3,5-dibromo-4-hydroxyphenyl)(2-ethyl-7-hydroxy-5,6,7,8-tetrahydroimidazo[1,2-a]pyridine-3-yl)methanone]
47.6 ± 4.12 | very good inhibitory effects | CCc1nc2n(c1C(=O)c1cc(Br)c(O)c(Br)c1)CCC(OC)C2 (stereo not shown) [Compound 25, (3,5-dibromo-4-hydroxyphenyl)-(2-ethyl-7-methoxy-5,6,7,8-tetrahydroimidazo[1,2-a]pyridin-3-yl)methanone]
43.4 ± 2.4 | – | CCc1nn2c(c1C(=O)c1cc(Br)c(O)c(Br)c1)CCCC2 [Compound 32]
53.2 ± 9.36 | very good inhibitory effects | CCc1nc2n(c1C(=O)c1cc(Br)c(O)c(Br)c1)CC(C)CC2 (stereo not shown) [Compound 43, (3,5-dibromo-4-hydroxyphenyl)(2-ethyl-6-methyl-5,6,7,8-tetrahydroimidazo[1,2-a]pyridin-3-yl)methanone]
46.1 ± 4.91 | very good inhibitory effects | CCc1nc2n(c1C(=O)c1cc(C)c(O)c(Br)c1)CCCC2 [Compound 48, (3-bromo-4-hydroxy-5-methylphenyl)(2-ethyl-5,6,7,8-tetrahydroimidazo[1,2-a]pyridin-3-yl)methanone]
